Structures are written as SMILES. pEC50: −log10 of the molar value.

Here are results for 21 molecules from ChEMBL document CHEMBL1143572, “Virtual screening workflow development guided by the "receiver operating characteristic" curve approach. Application to high-throughput docking on metabotropic glutamate receptor subtype 4” (J Med Chem, 2005).

Test [1] concerns the target T1, Metabotropic glutamate receptor 4 (Rattus norvegicus, UniProt P31423). Description: Stimulation of [3H]phosphatidylinositol accumulation by rat Metabotropic glutamate receptor 4 co-expressed with Gqi9 protein in HEK 293 cells; Active. The format is functional, cell-based, HEK293.
Test [2] addresses T1, Metabotropic glutamate receptor 4. The experiment in a line: Stimulation of [3H]phosphatidylinositol accumulation by rat Metabotropic glutamate receptor 4 co-expressed with Gqi9 protein in HEK 293 cells; Inactive. The format is functional, cell-based, HEK293.
For test [3] the target is unchanged. The experiment in a line: Effective concentration against Metabotropic glutamate receptor 4.
Test [4] has as its target Metabotropic glutamate receptor 4 (Rattus norvegicus, UniProt P31423, D309A). The experiment in a line: Effective concentration against D309A mutant Metabotropic glutamate receptor 4.
The target in test [5] is T1, Metabotropic glutamate receptor 4. The experiment in a line: Stimulation od [3H]phosphatidylinositol accumulation by rat Metabotropic glutamate receptor 4 co-expressed with Gqi9 protein in HEK 293 cells. The format is functional, cell-based, HEK293.

T1 sequence (P31423 whole entry): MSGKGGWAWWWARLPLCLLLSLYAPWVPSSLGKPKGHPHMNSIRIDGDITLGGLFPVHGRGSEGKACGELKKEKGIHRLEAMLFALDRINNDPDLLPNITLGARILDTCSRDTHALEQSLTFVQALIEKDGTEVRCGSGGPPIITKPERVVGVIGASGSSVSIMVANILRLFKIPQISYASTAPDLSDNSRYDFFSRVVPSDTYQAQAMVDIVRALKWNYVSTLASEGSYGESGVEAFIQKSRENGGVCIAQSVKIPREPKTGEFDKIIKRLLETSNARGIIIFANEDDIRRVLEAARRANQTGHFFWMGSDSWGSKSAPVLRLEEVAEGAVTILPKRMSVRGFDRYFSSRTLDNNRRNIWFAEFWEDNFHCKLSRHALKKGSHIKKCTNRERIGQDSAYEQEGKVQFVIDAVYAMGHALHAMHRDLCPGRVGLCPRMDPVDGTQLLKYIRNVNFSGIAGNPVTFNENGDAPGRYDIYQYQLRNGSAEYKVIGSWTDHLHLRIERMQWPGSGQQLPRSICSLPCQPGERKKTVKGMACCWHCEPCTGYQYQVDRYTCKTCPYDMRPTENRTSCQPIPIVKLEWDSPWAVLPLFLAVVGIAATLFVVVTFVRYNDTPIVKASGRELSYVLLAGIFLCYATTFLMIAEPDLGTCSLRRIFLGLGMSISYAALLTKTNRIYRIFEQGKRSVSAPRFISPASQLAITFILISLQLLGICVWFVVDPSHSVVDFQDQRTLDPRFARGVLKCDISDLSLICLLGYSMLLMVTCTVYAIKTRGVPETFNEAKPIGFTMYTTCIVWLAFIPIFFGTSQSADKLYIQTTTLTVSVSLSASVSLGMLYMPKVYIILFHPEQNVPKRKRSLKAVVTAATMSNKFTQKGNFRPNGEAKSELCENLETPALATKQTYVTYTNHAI
Chain of Metabotropic glutamate receptor 4 (Rattus norvegicus, UniProt P31423, D309A) (P31423 whole entry, looked up, stated change not applied): as the sequence (P31423 whole entry) above

`N[C@@]1(C(=O)O)C[C@H](C(=O)O)[C@H](C(=O)O)C1` gave a pEC50 in test [1] greater than 4.00. Regarding `N[C@H](Cn1oc(=O)[nH]c1=O)C(=O)O`, the pEC50 in test [2] was less than 4.00. `NC1(C(=O)O)CC2CC1C2C(=O)O` (centres undefined) showed a pEC50 in test [1] greater than 4.00. Regarding `N[C@@H](CCP(=O)(O)O)C(=O)O`, the pEC50 in test [3] is 6.70; in test [4] it was 3.89; in test [1] it was greater than 4.00.

For `N[C@H](C(=O)O)c1ccc(C(=O)O)c(C(=O)O)c1`, the pEC50 in test [1] was greater than 4.00. `N[C@@H](COP(=O)(O)O)C(=O)O` [DEXFOSFOSERINE] showed a pEC50 in test [1] greater than 4.00. With `N[C@H](C(=O)O)c1ccc(P(=O)(O)O)cc1`, the negative-log EC50 (pEC50) in test [1] was greater than 4.00. In turn, `N[C@H](CCC(=O)O)C(=O)O` [D-GLUTAMATE] showed a pEC50 in test [1] greater than 4.00. In the case of `N[C@@]1(C(=O)O)CN[C@@H](C(=O)O)C1`, the pEC50 in test [2] is less than 4.00. Take `C[C@@H](C[C@@H](N)C(=O)O)C(=O)O`: the pEC50 in test [2] is less than 4.00.

For the molecule `N[C@@H](CCS(=O)(=O)O)C(=O)O`, the negative-log EC50 (pEC50) in test [1] is greater than 4.00. `N[C@@]1(C(=O)O)CC[C@H]2[C@H](C(=O)O)[C@H]21` [EGLUMETAD] showed a pEC50 in test [2] of less than 4.00. Molecule `N[C@@]1(C(=O)O)CC[C@H](C(=O)O)C1` showed a pEC50 in test [2] of less than 4.00. As to `NC1(C(=O)O)C[C@H](C(=O)O)[C@@H](C(=O)O)C1`, the pEC50 in test [1] is greater than 4.00. In test [2], `N[C@H](C(=O)O)c1ccc(C(=O)O)c(O)c1` had a pEC50 of less than 4.00. In turn, `N[C@@]1(C(=O)O)CC[C@@H](C(=O)O)C1` had a pEC50 in test [2] of less than 4.00.

Consider `N[C@H](C(=O)O)C12CC(C(=O)O)(C1)C2`, for which the results for the pEC50 in test [5] and in test [2] were less than 3.00 and less than 4.00, respectively. As for `N[C@@H](CCn1oc(=O)[nH]c1=O)C(=O)O`, the negative logarithm of the EC50 (pEC50) in test [2] was less than 4.00. Turning to `N[C@H](C(=O)O)[C@@H]1C[C@H]1C(=O)O`, the negative logarithm of the EC50 (pEC50) in test [1] is greater than 4.00. In the case of `N[C@H](C(=O)O)c1cc(O)cc(O)c1`, in test [2], the negative-log EC50 (pEC50) was less than 4.00. `C=C(C[C@@H](N)C(=O)O)C(=O)O` gave a pEC50 in test [2] of less than 4.00.
